We go through five compounds from ChEMBL document CHEMBL1201862, “PubChem BioAssay data set” (2004).

Assay [1] addresses T1, Glutathione-S-transferase (Schistosoma japonicum, UniProt Q26513).
T1 sequence (Q26513 whole entry): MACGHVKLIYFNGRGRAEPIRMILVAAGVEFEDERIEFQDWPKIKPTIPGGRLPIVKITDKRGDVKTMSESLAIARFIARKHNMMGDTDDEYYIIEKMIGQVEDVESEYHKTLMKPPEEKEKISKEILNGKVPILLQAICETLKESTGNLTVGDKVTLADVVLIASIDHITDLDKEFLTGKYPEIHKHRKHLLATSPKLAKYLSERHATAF
Kind of assay: biotin-GST/anti-GST TR-FRET signal inhibitors, dose response, artefact control for Vif-APOBEC3G degradation inhibitor project, biochemical (AID 1117362). The format is functional.

In assay [2] the target is Eukaryotic translation initiation factor 4E (Mus musculus, UniProt P63073). The experiment in a line: eIF4E–eIF4G protein interaction inhibitors, dose response, biochemical, TR-FRET (AID 855).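 Further: potency for disrupting eIF4E binding to eIF4GI seen as loss of FRET.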 The format is functional.
Assay [3] has as its target Induced myeloid leukemia cell differentiation protein Mcl-1 (Homo sapiens, UniProt Q07820). It is filed as functional.
The target of assay [4] is T2, Tyrosine-protein phosphatase non-receptor type 7 (Homo sapiens, UniProt P35236).
T2 sequence (P35236 whole entry): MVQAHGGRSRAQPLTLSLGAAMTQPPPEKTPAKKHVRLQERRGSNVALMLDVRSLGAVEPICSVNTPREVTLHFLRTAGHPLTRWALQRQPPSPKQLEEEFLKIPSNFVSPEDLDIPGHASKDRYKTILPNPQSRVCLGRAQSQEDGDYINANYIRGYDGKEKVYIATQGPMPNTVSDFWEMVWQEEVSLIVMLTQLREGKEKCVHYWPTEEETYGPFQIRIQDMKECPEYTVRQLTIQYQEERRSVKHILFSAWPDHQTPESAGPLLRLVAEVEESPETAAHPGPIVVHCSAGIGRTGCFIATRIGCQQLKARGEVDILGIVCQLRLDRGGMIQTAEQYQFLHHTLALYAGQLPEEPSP
Kind of assay: redox-dependent HePTP inhibition, mechanism study, biochemical, fluorescence (AID 2068). The format is functional.

The next assay concerns the target Troponin, cardiac muscle (Homo sapiens, UniProt P19429+P45379+P63316). Kind of assay: Fluorescence-based biochemical high throughput dose response assay for activators of the calcium sensitivity of cardiac Regulated Thin Filaments (RTF). [Related pubchem assays (depositor defined):AID493008, AID493018, AID504382, AID504383]. It is filed as protein-complex assay.

The target in another assay is Beta Lactamase (Pseudomonas aeruginosa, UniProt Q932Y6). The experiment in a line: beta-lactamase reporter inhibitor potency, dose response, artefact control for TLR9-MyD88 binding inhibitor project, BLA reporter cells, FRET fluorescence (AID 588341).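 Further: cell based assay in CHO-K1 cells stably expressing beta-lactamase.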 The format is cell-based.
A short description of assay [5]: growth suppression of beta-catenin-knockout colon cells, dose response, cell-based, HCT116, human colon tumor (AID 1045).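 Further: HCT116 colon tumor cells with beta catenin knocked out; cells exposed to compound for 60 hours.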 The format is functional.
A further assay has as its system CHO. The experiment in a line: cytotoxicity in TLR9-MyD88 CHO cells, dose response, cytotoxicity control for TLR9-MyD88 binding inhibitor project, cell-based, luminescence (AID 588339).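 Further: CHO cells stably coexpressing TLR9 and MyD88 fusions from primary screen; compound exposure lasted 48 hours before viability readout.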 The format is functional, hamster. Particulars: Cricetulus griseus.
Assay [6] can be described thus: growth suppression of PTEN-null colon cells, dose response, cell-based, HCT116 PTEN knockout (AID 1047).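 Further: HCT116 colon tumor cells with PTEN knocked out; cells exposed to compound for 60 hours before readout; potency for loss of cell viability measured by luminescence.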 It is filed as functional.
For a further assay, the system named is INS1. Kind of assay: beta cell apoptosis inhibitors, cytokine rescue, dose response, luminescence, retest (AID 449756).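 Further: cell death triggered by IL-1 beta plus TNF-alpha plus IFN-gamma mixture; protective hits raise ATP signal compared with cytokine alone wells.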 It is filed as functional, cell-based. As to conditions: Rattus norvegicus.
Assay [7] has as its target DNA damage-inducible transcript 3 protein (Mus musculus, UniProt P35639). It is filed as functional, Cricetulus griseus.
Assay [8] deals with T3, Heat shock factor protein 1 (Mus musculus, UniProt P38532).
T3 sequence (P38532 whole entry): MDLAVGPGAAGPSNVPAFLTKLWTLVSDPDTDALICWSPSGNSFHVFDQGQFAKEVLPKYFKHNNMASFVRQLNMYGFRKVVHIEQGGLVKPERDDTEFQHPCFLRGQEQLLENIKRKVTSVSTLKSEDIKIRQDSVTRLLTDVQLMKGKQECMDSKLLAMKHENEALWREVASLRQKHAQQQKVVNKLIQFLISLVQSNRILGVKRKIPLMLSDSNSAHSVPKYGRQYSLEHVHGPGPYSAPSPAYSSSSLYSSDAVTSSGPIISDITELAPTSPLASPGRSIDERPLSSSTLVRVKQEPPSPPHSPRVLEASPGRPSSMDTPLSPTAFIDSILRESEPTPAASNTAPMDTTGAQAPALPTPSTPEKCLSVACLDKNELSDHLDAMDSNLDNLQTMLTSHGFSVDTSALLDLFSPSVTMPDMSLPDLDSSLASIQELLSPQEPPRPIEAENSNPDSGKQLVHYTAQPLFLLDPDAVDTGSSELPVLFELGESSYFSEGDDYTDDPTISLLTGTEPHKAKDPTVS
The experiment in a line: HSF1 potentiators in luciferase reporter cells, confirmation, cell-based, NIH3T3, luminescence, dose retest (AID 435004).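 Further: stress induced by proteasome inhibitor MG132 added 30 min after compound; luciferase reporter driven by HSF1 response element in NIH3T3 cells; actives raise luminescence as potentiators of the MG132 stress response.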 It is filed as functional. (In general: Reporter assays use an easily measured gene product as a stand-in for the process of interest.)

Another assay addresses ORF 73 (Human herpesvirus 8, UniProt O40947). The experiment in a line: inhibitors of C-LANA binding to LBS DNA, dose response, biochemical, fluorescence polarization, cherry-picked samples (AID 504725).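 Further: fluorescence polarization of a labeled DNA duplex reporting LANA DNA binding; potency is for inhibitors that block LANA binding to the DNA.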 The arrangement: species or system Human gammaherpesvirus 8. A general note: Fluorescence polarisation rises when a labelled molecule tumbles more slowly, as on binding a larger partner.

A further assay relates to HeLa. The experiment in a line: HeLa cell cytotoxicity, dose response, cytotoxicity control, 24 h, cherry-picked samples (AID 504726).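 Further: potency for cytotoxicity as loss of luminescence signal.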 Particulars: Homo sapiens. It is filed as functional, cell-based.
Another assay addresses Tumor necrosis factor (Homo sapiens, UniProt P01375). The experiment in a line: TNFa-triggered NF-kB activation inhibitors, SAR follow-up, cell-based, revised (AID 2337). The format is functional.
The target in assay [9] is T4, Nucleotide-binding oligomerization domain-containing protein 1 (Homo sapiens, UniProt Q9Y239).
T4 sequence (Q9Y239 whole entry): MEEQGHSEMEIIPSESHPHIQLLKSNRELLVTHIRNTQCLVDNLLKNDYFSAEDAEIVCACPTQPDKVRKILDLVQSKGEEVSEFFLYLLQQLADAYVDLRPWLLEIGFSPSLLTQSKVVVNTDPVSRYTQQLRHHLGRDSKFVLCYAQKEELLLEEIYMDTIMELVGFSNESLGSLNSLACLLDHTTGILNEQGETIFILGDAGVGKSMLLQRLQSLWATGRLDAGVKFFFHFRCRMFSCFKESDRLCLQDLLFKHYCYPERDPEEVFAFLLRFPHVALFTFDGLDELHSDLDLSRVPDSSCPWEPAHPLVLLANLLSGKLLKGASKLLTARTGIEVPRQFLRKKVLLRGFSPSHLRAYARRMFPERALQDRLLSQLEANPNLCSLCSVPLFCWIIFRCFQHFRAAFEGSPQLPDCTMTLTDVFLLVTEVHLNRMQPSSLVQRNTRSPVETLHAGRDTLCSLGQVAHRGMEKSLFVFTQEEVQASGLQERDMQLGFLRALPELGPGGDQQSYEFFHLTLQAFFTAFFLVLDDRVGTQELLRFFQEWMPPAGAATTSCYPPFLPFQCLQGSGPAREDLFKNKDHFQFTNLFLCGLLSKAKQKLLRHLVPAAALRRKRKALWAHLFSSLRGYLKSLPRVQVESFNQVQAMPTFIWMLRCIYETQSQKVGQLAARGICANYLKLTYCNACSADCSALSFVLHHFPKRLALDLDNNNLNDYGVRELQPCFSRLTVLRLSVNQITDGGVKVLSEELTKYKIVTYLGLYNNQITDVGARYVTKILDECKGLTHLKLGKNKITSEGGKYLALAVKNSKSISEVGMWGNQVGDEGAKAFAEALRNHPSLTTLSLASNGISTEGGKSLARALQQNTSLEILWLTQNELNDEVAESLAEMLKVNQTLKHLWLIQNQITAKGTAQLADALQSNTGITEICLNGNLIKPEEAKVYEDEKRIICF
The experiment in a line: NOD1 signaling inhibitors, SAR follow-up, revised (AID 2333). It is filed as functional.

Assay [10] has as its target Nucleotide-binding oligomerization domain-containing protein 2 (Homo sapiens, UniProt Q9HC29). The experiment in a line: NOD2 signaling inhibitors, cell-based, luminescence, uHTS, HEK293 (AID 1566). It is filed as functional.

Activity calls are given as the source filed them.

Usually IC50 stands for the concentration at which inhibition is half-maximal. Regarding `O=C(NCCO)Nc1ccc2nc(-c3ccco3)c(-c3ccco3)nc2c1`, the IC50 is 48.5 µM (active) in [1], 50 µM (inactive) in [2], 0.579 µM (active) in assay [3] and 0.476 µM (active) in assay [4].

By EC50 is commonly meant the concentration at which the effect is half-maximal. Consider `CC(=O)Oc1ccc(NC(=O)Cc2ccccc2)c(C(=O)O)c1`, for which the EC50 at Troponin, cardiac muscle was > 71.5 µM (inactive).

By AC50 is commonly meant the midpoint of the concentration-response curve, whichever way the signal moves. In the case of `Cc1ccccc1NC(=O)/C=C/c1ccc([N+](=O)[O-])s1`, the IC50 was 13.7 µM (inactive) at Beta Lactamase and 2.22 µM (active) in the assay with CHO. Besides, the results for the EC50 in assay [5] and in assay [6] were 1.16 µM (active) and 1.6 µM (active), respectively. The concentration at half-maximal activity (AC50) in the assay on INS1 was 6.17 µM (active). Further, the “Absolute IC50 (CHOP)” value in assay [7] was determined as 10 µM.

On to `O=C(Nc1ccccc1F)C(=Cc1sc(N2CCOCC2)nc1-c1ccccc1)C(=O)Nc1ccccc1F`, for which the EC50 in assay [5] is 9.63 µM (active); in assay [6] it was 11.9 µM (active); in assay [8], > 260 µM (inactive). The values for the AC50 at ORF 73 and in the assay with HeLa were 16.4 µM (active) and 292 µM (active), respectively.

In the case of `Cc1oc(-c2ccccc2Cl)nc1CSc1nc2c(c(=O)[nH]1)CCCC2`, the IC50 at Tumor necrosis factor is 3.09 µM (active); in [9] it was 5.75 µM (active). In addition, the EC50 in assay [10] is 0.73 µM (active).
